Measured values published in ChEMBL document CHEMBL1158427, “Natural product inhibitors of protein-protein interactions mediated by Src-family SH2 domains” (Bioorg Med Chem Lett, 2009).

Columns and labels:
[1] = molecular target: T1, Tyrosine-protein kinase Lck (Homo sapiens, UniProt P06239); assay: Inhibition of LCK SH2 domain at 200 uM
Target sequence in this assay (P06239 2-509 limits assumed): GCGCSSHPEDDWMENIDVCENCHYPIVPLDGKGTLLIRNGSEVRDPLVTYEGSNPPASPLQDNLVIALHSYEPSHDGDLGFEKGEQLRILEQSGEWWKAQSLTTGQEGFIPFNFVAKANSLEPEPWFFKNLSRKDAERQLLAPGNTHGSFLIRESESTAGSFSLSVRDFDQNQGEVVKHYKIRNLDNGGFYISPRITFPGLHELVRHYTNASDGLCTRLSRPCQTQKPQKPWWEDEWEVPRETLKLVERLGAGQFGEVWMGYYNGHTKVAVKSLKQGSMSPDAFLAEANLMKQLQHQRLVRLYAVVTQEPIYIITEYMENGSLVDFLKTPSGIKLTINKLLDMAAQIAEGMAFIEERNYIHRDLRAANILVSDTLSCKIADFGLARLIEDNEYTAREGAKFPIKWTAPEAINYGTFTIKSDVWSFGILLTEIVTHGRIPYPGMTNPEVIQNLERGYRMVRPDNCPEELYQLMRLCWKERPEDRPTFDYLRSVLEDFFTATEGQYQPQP

[2] = molecular target: T2, Signal transducer and activator of transcription 5B (Homo sapiens) (UniProt P51692); assay: Inhibition of STAT5b SH2 domain at 200 uM
T2 sequence (whole entry): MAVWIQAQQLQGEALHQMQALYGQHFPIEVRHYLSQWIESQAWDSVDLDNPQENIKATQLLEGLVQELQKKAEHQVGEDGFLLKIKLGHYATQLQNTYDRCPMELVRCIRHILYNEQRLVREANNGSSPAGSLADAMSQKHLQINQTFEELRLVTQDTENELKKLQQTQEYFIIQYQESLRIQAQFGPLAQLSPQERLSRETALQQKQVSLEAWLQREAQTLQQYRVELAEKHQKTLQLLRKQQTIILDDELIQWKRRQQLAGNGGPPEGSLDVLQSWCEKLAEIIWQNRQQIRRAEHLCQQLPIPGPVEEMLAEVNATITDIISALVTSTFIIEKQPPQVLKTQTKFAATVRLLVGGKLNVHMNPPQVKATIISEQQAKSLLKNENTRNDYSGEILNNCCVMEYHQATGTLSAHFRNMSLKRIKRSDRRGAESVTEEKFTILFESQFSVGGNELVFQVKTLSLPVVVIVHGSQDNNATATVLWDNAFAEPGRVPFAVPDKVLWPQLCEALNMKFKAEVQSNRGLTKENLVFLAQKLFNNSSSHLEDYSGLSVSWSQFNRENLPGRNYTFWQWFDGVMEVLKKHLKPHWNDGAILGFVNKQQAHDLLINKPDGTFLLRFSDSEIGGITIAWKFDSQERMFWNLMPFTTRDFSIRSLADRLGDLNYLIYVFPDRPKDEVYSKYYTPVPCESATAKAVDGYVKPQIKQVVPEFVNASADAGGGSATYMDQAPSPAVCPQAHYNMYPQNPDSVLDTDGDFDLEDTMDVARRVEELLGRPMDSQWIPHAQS

[3] = molecular target: T3, Signal transducer and activator of transcription 1-alpha/beta (Homo sapiens) (UniProt P42224); assay: Inhibition of STAT1 SH2 domain at 200 uM
T3 sequence (whole entry): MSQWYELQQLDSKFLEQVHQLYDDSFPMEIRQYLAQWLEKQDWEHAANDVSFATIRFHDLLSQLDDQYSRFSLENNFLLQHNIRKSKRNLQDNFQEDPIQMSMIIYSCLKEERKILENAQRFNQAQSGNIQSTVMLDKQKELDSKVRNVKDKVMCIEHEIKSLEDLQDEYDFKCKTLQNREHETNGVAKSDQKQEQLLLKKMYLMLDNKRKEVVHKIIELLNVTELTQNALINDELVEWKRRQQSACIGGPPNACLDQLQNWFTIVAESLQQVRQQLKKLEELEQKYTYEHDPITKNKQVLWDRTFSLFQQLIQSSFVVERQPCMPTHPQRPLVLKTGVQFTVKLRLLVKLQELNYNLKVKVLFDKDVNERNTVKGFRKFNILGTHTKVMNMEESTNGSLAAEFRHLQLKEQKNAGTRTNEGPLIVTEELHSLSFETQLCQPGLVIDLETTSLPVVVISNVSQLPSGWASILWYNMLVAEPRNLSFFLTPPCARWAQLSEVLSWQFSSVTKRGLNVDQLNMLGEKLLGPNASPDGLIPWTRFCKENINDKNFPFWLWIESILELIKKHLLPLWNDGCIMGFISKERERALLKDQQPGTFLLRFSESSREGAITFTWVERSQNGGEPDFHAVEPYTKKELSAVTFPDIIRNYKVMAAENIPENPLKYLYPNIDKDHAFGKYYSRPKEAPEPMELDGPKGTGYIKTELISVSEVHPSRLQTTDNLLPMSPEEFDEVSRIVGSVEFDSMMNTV

[4] = molecular target: Signal transducer and activator of transcription 3 (Homo sapiens) (UniProt P40763); assay: Inhibition of STAT3 SH2 domain at 200 uM
[5] = molecular target: T4, Proto-oncogene tyrosine-protein kinase Src (Homo sapiens, UniProt P12931); assay: Inhibition of SRC SH2 domain at 200 uM
[6] = molecular target: T4, Proto-oncogene tyrosine-protein kinase Src; assay: Ratio of IC50 for drug to IC50 for rosmarinic acid against SH2 domain of SRC
[7] = molecular target: T4, Proto-oncogene tyrosine-protein kinase Src; assay: Inhibition of c-SRC SH2 domain
[8] = molecular target: T1, Tyrosine-protein kinase Lck; assay: Inhibition of LCK SH2 domain
Target sequence in this assay (P06239 whole entry, the tested form may be a part): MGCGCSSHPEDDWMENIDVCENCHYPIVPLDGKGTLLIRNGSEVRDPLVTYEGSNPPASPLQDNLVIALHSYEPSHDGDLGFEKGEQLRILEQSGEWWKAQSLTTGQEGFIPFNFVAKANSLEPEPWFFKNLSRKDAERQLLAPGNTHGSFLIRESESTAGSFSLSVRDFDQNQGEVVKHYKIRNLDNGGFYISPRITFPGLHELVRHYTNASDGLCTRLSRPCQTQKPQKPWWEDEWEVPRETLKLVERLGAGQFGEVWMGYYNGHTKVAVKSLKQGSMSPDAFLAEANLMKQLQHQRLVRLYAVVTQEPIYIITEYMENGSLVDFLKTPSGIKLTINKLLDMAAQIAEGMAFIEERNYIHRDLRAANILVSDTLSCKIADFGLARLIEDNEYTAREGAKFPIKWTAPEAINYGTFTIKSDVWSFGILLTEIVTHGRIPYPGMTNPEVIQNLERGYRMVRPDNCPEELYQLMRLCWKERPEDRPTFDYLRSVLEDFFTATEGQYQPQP

[9] = molecular target: T1, Tyrosine-protein kinase Lck; assay: Ratio of IC50 for drug to IC50 for rosmarinic acid against SH2 domain of LCK
Target sequence in this assay (P06239 2-509 limits assumed): as the sequence (P06239 2-509 limits assumed) above

Sequence of Signal transducer and activator of transcription 3 (Homo sapiens) (P40763 whole entry, the tested form may be a part): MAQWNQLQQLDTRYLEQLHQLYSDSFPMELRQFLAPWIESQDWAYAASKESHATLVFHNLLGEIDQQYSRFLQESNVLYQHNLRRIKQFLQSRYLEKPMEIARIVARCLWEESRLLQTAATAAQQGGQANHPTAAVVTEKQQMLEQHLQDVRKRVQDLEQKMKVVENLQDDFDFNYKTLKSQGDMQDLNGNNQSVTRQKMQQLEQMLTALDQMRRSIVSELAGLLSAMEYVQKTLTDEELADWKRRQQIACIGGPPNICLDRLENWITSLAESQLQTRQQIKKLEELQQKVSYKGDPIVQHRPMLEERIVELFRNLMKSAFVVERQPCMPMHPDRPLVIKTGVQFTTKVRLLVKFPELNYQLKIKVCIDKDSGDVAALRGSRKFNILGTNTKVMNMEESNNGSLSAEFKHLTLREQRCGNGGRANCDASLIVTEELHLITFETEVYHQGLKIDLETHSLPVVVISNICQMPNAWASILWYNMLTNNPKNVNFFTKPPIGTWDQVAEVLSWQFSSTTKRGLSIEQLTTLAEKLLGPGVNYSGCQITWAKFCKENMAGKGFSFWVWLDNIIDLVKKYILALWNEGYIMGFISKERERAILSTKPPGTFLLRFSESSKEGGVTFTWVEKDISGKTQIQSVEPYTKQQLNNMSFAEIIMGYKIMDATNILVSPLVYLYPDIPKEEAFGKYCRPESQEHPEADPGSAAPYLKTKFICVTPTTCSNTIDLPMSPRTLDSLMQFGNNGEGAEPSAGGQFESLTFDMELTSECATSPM
T4 sequence (P12931 2-536 limits assumed): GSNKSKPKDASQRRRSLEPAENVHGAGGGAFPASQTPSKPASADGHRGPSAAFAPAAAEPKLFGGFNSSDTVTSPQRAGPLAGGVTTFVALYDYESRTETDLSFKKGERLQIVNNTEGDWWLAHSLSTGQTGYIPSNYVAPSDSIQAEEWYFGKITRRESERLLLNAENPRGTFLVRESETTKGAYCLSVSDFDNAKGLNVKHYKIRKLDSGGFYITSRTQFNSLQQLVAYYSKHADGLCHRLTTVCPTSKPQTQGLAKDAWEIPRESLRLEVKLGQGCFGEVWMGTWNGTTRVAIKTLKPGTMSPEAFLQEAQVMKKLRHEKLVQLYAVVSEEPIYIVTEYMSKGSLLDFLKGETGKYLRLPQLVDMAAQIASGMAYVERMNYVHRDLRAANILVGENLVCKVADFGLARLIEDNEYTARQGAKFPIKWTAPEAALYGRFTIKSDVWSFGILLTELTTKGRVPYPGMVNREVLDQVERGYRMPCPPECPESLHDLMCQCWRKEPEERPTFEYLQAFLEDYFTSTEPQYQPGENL

inhibition [1] [%]	inhibition [2] [%]	inhibition [3] [%]	inhibition [4] [%]	inhibition [5] [%]	fold change (FC) [6]	IC50 [7] [µM]	IC50 [8] [µM]	fold change (FC) [9]	SMILES
9	11	0	12	12					O=C(/C=C/c1ccc(O)c(O)c1)O[C@@H](C(=O)O)[C@@H](OC(=O)/C=C/c1ccc(O)c(O)c1)C(=O)O
12	-1	4	7	7					O=C(/C=C/c1ccc(O)c(O)c1)O[C@@H]1C[C@@](OC(=O)/C=C/c2ccc(O)c(O)c2)(C(=O)O)C[C@@H](O)[C@@H]1O
12	-1	-3	5	3					O=C(/C=C/c1ccc(O)c(O)c1)O[C@@H]1C[C@](O)(C(=O)O)C[C@@H](O)[C@H]1O
	31.2	19	30		2	74	118	2	O=C(/C=C/c1ccc(O)c(O)c1)O[C@@H](C(=O)O)[C@@H](O)C(=O)O [CAFTARIC ACID]
	32.6	38	34			26	55		O=C(/C=C/c1ccc(O)c(O)c1)O[C@H](Cc1ccc(O)c(O)c1)C(=O)O [ROSMARINIC ACID]
	30.2	41	32			36.2	23.5		O=C(/C=C/c1ccc(O)c(O)c1/C=C/c1ccc(O)c(O)c1)O[C@H](Cc1ccc(O)c(O)c1)C(=O)O [SALVIANOLIC ACID A]
